Columns and labels:
[1] = Kinetic profile of NO and HNO release / stability in buffer; format: physicochemical; details: phosphate buffer pH 7.4, several hours
Description: The newly synthesized HNO-releasing aspirin (IPA/NO-aspirin, 4) and NO-releasing aspirin (DEA/NO-aspirin, 8) were evaluated for the kinetic profile of NO and HNO release in buffer and cells.

COX-2 mRNA = experiment: COX mRNA levels; format: cell-based; details: Control 1.0
Excerpt: PGE2 levels are a direct measure of COX-2 activity. […] Increased COX-2 expression in the presence of aspirin has been reported previously (Davies et al., Alimentary Pharm. & Ther. 11(6):1101-08 (1997))). Both DEA/NO and DEA/NO-aspirin seem to augment the effect of aspirin while IPA/NO and IPA/NO-aspirin nullifies the effect and brings it back to the control level (Table 3).

stomach ulcers = experiment: Ulcerogenicity (ulcer index) after oral administration; format: in vivo, rats; details: for Ulcer Index: 6 h after oral administration, equivalent to 250 mg/kg aspirin; for UI (ulcer index): as given in the text
Description: Ulcerogenicity was evaluated 6 h after oral administration of 250 mg/kg of aspirin (250 mg/kg) and an equivalent amount of the corresponding test compound. The compounds were suspended in 1.7 mL of a 1% methylcellulose solution and administered. The control rats received oral administration of a vehicle (1.7 mL of 1.0% methylcellulose solution). The rats were euthanized in a CO2 chamber and their stomachs and placed on ice and then the ulcers were studied using magnifying glass.

MCF-7 cells = experiment: MTT cell survival, MCF-7; format: cell-based, human; details: MTT assay
Description: (§1) MDA-MB-231, MCF-7 and MDA-MB-468, human breast carcinoma cell lines and MCF-10A, breast […] (American Type Culture Collection, Manassas, Va.) were grown as monolayers in RPMI 1640 supplemented with 10% FCS (Hyclone), penicillin (50 units/ml), streptomycin ([…]; Life Technologies, Inc., Grand Island, N.Y.) and endothelial growth media (Lonanza) respectively. Cells were seeded at a density of 1×10^6 cells/100-cm^2 culture dish and incubated at 37° C. in 5% CO2 and 80% relative humidity. Single-cell suspensions were obtained by trypsinization (0.05% trypsin/EDTA), and cells were counted using a Beckman cell counter.
(§2) 1000× stock solutions aspirin, of a DEA/NO-ASA, and IPA/NO-ASA were made in DMSO and final concentration in the media or PBS was adjusted to 0.1% DMSO.
(§3) The effect of NONO-aspirin on cell proliferation was studied using an MTT assay. The effect of DEA/NO-ASA, IPA/NO-ASA, aspirin, IPA/NO and DEA/NO was measured using the MTT assay. Cells were plated at a concentration of 8,000-10,000 cells per well in a 96 well plate and grown overnight. Cells were treated with different concentrations of the compounds and controls for 48 h. After 48 h, a solution of 5 mg/ml MTT was added to each well and incubated for 1 h. Then the media was removed from each well and 100 uL DMSO was added to each well and the absorbance was read at 550 nm. […]

MB-468 cells = experiment: MTT cell survival, MDA-MB-468; format: cell-based, human; details: MTT assay
Description: as §1, §2, §3

caspase-3 [2] = experiment: Caspase-3 fluorescence assay, MDA-MB-231; format: cell-based, human; details: 12 h
Description: (§4) The caspase-3 activity in the presence of IPA/NO-ASA and DEA/NO-ASA was measured using caspase-3 fluorescence assay kit (Cat No. 10009135, Cayman Chemical). Cells were plated at a concentration of 50,000 cells per well in a 96 well plate and grown overnight. Then the cells were treated with different concentrations of the compounds and controls for 12 h. After 12 h, the plate was centrifuged at 800 g and the media was removed by aspiration. 100 μL of lysis buffer was added to each well and the plate was incubated for […] at room temperature. 100 μL of a caspase-3 substrate solution was added to each well and incubated for 30 min after which the fluorescence was read at excitation of 485 nm and emission of 535 nm.

caspase-3 [3] = experiment: Caspase-3 fluorescence assay, MCF-7; format: cell-based, human; details: 12 h
Description: as §4

MDA-MB-231 cell line = experiment: Comet assay for DNA damage, MDA-MB-231; format: cell-based, human; details: 50 μM IPA/NO-aspirin, 75 μM DEA/NO-aspirin
Description: The pathological aspect of high ROS is the ability to cause oxidative damage to DNA. To further investigate this possibility, the effect of NONO-aspirin was studied on DNA damage using a comet assay in the MDA-MB-231 cell line.
Cells were plated at a concentration of 50,000 cells per well in a 12 well plate and grown overnight. Cells were treated with 50 μM IPA/NO-aspirin and 75 μM DEA/NO-aspirin for 12 h and the assay was conducted using a comet assay kit (Cat No. 4250-050-K, Trevigen, Md.) as described in the manufacturer's instructions.

[4] = target: T1, glyceraldehyde-3-phosphate dehydrogenase (GAPDH) (Homo sapiens, UniProt P04406); experiment: GAPDH activity, MDA-MB-468; format: cell-based; parameters: endogenous in cells; host or cells: MDA-MB-468; details: MDA-MB-468, 100 μM
T1 sequence (P04406 whole entry): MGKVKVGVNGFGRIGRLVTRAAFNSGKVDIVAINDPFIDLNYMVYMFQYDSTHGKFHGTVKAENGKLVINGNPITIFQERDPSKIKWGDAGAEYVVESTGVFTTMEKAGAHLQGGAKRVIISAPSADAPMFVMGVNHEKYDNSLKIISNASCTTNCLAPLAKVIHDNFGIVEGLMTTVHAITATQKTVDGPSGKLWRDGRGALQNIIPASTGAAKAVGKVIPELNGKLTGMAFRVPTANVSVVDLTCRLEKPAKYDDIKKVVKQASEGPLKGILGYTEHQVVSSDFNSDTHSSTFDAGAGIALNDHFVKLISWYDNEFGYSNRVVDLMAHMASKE
Description: (§5) Cells were plated at a concentration of 30,000 cells per well and grown overnight. Cells were treated with 100 μM IPA/NO-aspirin and DEA/NO-aspirin for 1, 3, and 6 h after which 200 μL of KDalert lysis buffer was added to each well. The plate was incubated at 4° C. for 20 min to lyse the cells. 10 μL of cell lysate was transferred to a clean 96 well plate and 90 μL of KDalert mastermix was added to each well and the fluorescence was measured at excitation of 540 nm and emission of 570 nm.

[5] = target: T1, glyceraldehyde-3-phosphate dehydrogenase (GAPDH); experiment: GAPDH activity, MDA-MB-231; format: cell-based; parameters: endogenous in cells; host or cells: MDA-MB-231, MDA-MB-468, MCF-7, MCF-10A; details: MDA-MB-231, 100 μM
Description: as §5

CCN(CC)[N+]([O-])=NOCOC(=O)c1ccccc1OC(C)=O [DEA/NO-aspirin, O^2-(Acetylsalicyloyloxymethyl)-1-(N,N-Diethylamino)-diazen-1-ium-1,2-diolate]
stability in phosphate buffer [1]: relatively stable | COX-2 mRNA level relative to control (COX-2 mRNA): 6.5 | Ulcer Index (stomach ulcers): 0 mg/kg | UI (ulcer index) (stomach ulcers): 0 | IC50 (MCF-7 cells): 120 µM | IC50 (MB-468 cells): 85 µM | Caspase-3 Activity (caspase-3 [2]; MDA-MB-231, 25 μM): 0.25 U/mL | Caspase-3 Activity (caspase-3 [2]; MDA-MB-231, 50 μM): 0.24 U/mL | Caspase-3 Activity (caspase-3 [2]; MDA-MB-231, 100 μM): 0.31 U/mL | Caspase-3 Activity (caspase-3 [3]; MCF-7, 25 μM): 0.30 U/mL | Caspase-3 Activity (caspase-3 [3]; MCF-7, 50 μM): 0.35 U/mL | Caspase-3 Activity (caspase-3 [3]; MCF-7, 100 μM): 0.27 U/mL | DNA damage (comet assay) (MDA-MB-231 cell line): comparable to the DMSO treated control | GAPDH Activity ([4]; 1 h): 0.060 U/mL | GAPDH Activity ([4]; 3 h): 0.065 U/mL | GAPDH Activity ([4]; 6 h): 0.050 U/mL | GAPDH Activity ([5]; 1 h): 0.150 U/mL | GAPDH Activity ([5]; 3 h): 0.160 U/mL | GAPDH Activity ([5]; 6 h): 0.150 U/mL

CC(=O)Oc1ccccc1C(=O)OCON=[N+]([O-])NC(C)C [IPA/NO-aspirin, O^2-(Acetylsalicyloyloxymethyl)-1-(N-isopropylamino)-diazen-1-ium-1,2-diolate]
stability in phosphate buffer [1]: relatively stable | COX-2 mRNA level relative to control (COX-2 mRNA): 0.8 | Ulcer Index (stomach ulcers): 3.3 ± 3 mg/kg | UI (ulcer index) (stomach ulcers): 3.0+3.0 | IC50 (MCF-7 cells): 90 µM | IC50 (MB-468 cells): 80 µM | Caspase-3 Activity (caspase-3 [2]; MDA-MB-231, 25 μM): 0.40 U/mL | Caspase-3 Activity (caspase-3 [2]; MDA-MB-231, 50 μM): 0.48 U/mL | Caspase-3 Activity (caspase-3 [2]; MDA-MB-231, 100 μM): 0.55 U/mL | Caspase-3 Activity (caspase-3 [3]; MCF-7, 25 μM): 0.30 U/mL | Caspase-3 Activity (caspase-3 [3]; MCF-7, 50 μM): 0.60 U/mL | Caspase-3 Activity (caspase-3 [3]; MCF-7, 100 μM): 0.58 U/mL | DNA damage (comet assay) (MDA-MB-231 cell line): significant DNA damage | GAPDH Activity ([4]; 1 h): <0.010 U/mL | GAPDH Activity ([4]; 3 h): <0.010 U/mL | GAPDH Activity ([4]; 6 h): <0.010 U/mL | GAPDH Activity ([5]; 1 h): 0.120 U/mL | GAPDH Activity ([5]; 3 h): 0.070 U/mL | GAPDH Activity ([5]; 6 h): 0.050 U/mL

— patent US8633177B2, “Nitroxyl (HNO) releasing compounds and uses thereof in treating diseases” (The United States of America, as represented by the …, priority 2010, dated 2014)
